The source of these data is patent US8163729B2 (Wyeth, priority 2007, dated 2012).

Data set [1] can be described thus: hygroscopicity / Dynamic Vapor Sorption (DVS) of hydrochloride salt crystal forms. The data set is classed as physicochemical. The note with it: for water absorbed eventually: 90% RH; for hygroscopicity / hygroscopicity (Crystal Form Table): hydrochloride salt crystal forms. The procedure:
Dynamic Vapor Sorption (DVS) was done at 26° C.

Data set [2] is described as follows: solubility in water of hydrochloride salt crystal forms. The format is physicochemical.
Data set [3] deals with T1, alpha7 nicotinic acetylcholine receptor (Rattus norvegicus, UniProt Q05941).
T1 construct: expressed in transfected cells
T1 sequence (Q05941 23-502): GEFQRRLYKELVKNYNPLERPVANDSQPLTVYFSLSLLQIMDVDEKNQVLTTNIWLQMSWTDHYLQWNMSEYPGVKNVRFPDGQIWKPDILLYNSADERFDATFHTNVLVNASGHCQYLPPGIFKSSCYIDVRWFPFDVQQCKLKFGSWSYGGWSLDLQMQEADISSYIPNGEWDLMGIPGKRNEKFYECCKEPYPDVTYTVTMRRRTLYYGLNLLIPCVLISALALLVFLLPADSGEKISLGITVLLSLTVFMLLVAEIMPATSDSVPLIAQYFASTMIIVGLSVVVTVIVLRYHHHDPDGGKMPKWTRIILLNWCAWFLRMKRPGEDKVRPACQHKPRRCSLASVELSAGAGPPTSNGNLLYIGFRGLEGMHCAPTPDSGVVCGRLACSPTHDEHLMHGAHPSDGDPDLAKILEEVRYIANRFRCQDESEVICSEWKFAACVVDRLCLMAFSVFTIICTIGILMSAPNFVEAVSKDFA
Put plainly: functional FLIPR assay, alpha7 nAChR stably expressed in GH4C1 cells. The format is cell-based. The note with it: agonist, concentration range 0.001 to 30 microM.
From the text: Rat GH4C1 cells were then transfected with the rat receptor, cloned and analyzed for functional alpha7 nicotinic receptor expression employing a FLIPR assay to measure changes in intracellular calcium concentrations.
The FLIPR system allows the measurements of real time Ca^2+-concentration changes in living cells using a Ca^2+ sensitive fluorescence dye (such as Fluo4). This instrument enables the screening for agonists and antagonists for alpha 7 nAChR channels stably expressed in GH4C1 cells.
GH4C1 cells stably transfected with rat-alpha7-nAChR (see above) were used. These cells are poorly adherent and therefore pretreatment of flasks and plates with poly-D-lysine was carried out. Cells are grown in 150 cm^2 T-flasks, filled with 30 ml of medium at 37° C. and 5% CO2.
EC50 and IC50 values were calculated using the IDBS XLfit4.1 software package employing a sigmoidal concentration-response (variable slope) equation: Y=Bottom+((Top−Bottom)/(1+((EC50/X)^HillSlope))
The compounds were tested using the functional FLIPR primary screening assay employing the stable recombinant GH4C1 cell line expressing the alpha7 nAChR. Hits identified were validated further by generation of concentration-response curves.

Where a name gives a salt, the structure may show the parent alone.

`COc1ccc(-c2cc(NC(=O)CCCCN3CCCN(C(C)=O)CC3)[nH]n2)cc1` (as salt: hydrochloride) [Example 4, 5-(4-Acetyl-[1,4]diazepan-1-yl)-pentanoic acid [5-(4-methoxy-phenyl)-2H-pyrazol-3-yl]-amide] came in with a melting point of 132 to 133 °C.
As for `COc1ccc(-c2cc(NC(=O)CCCCN3CCCN(C(C)=O)CC3)n[nH]2)cc1.Cl` [Form I, 5-(4-acetyl-1,4-diazepan-1-yl)-N-(5-(4-methoxyphenyl)-1H-pyrazol-3-yl)pentanamide hydrochloric salt Form I], the water absorbed eventually entry in data set [1] (DVS at 26° C.) is listed as “up to 2%”. In addition, the “relative humidity at which the form picks up moisture” value in data set [1] (DVS at 26° C.) was “about 50%”. For the same compound, the moisture gain result in data set [1] (at 70-100% RH, lost without significant hysteresis on decreasing RH) was “at least 12%”; in data set [1] (equilibrated at RH less than or equal to 70%) it was “about 0.5%”. In addition, the “hygroscopicity” value in data set [1] was “relatively non-hygroscopic”. In addition, the solubility in water result in data set [2] is given as “considerably soluble in water”.
For `COc1ccc(-c2cc(NC(=O)CCCCN3CCCN(C(C)=O)CC3)n[nH]2)cc1.Cl` [Form II, 5-(4-acetyl-1,4-diazepan-1-yl)-N-(5-(4-methoxyphenyl)-1H-pyrazol-3-yl)pentanamide hydrochloric salt Form II], in data set [1] (DVS at 26° C.), the water absorbed eventually result was “up to 7%” and the “relative humidity at which the form picks up moisture” value is recorded as “about 20%”. Further, in data set [1] (RH 0%, DVS at 26° C.), the “water held at low RH” value is listed as 2%. The “hygroscopicity” value in data set [1] was “non-hygroscopic”. Also, the solubility in water result in data set [2] is listed as “considerably soluble in water”.
Consider `COc1ccc(-c2cc(NC(=O)CCCCN3CCCN(C(C)=O)CC3)[nH]n2)cc1` (as salt: hydrochloric acid salt) [5-(4-Acetyl-[1,4]diazepan-1-yl)-pentanoic acid [5-(4-methoxy-phenyl)-2H-pyrazol-3-yl]-amide], for which the melting point turned out to be 185 °C.
Regarding `COc1ccc(-c2cc(NC(=O)CCCCN3CCCN(C(C)=O)CC3)n[nH]2)cc1.Cl` [mono-HCl salt, 5-(4-Acetyl-[1,4]diazepan-1-yl)-pentanoic acid [5-(4-methoxy-phenyl)-1H-pyrazol-3-yl]-amide (mono hydrochloride salt)], in data set [1], the “form change after DVS test” value is listed as “NO form change”.
Regarding `COc1ccc(-c2cc(NC(=O)CCCCN3CCCN(C(C)=O)CC3)[nH]n2)cc1` [Crystal Form III, 5-(4-Acetyl-[1,4]diazepan-1-yl)-pentanoic acid [5-(4-methoxy-phenyl)-2H-pyrazol-3-yl]-amide], in data set [1], the “hygroscopicity (Crystal Form Table)” value is “Hygroscopic”.
The compound `C[N+]1(C)CCN(c2ccccc2)CC1` [DMPP] gave an EC50 in data set [3] of 980 ± 470 nM.
With `COc1ccc(-c2cc(NC(=O)CCCCN3CCCN(C(C)=O)CC3)[nH]n2)cc1` [Crystal Form V, 5-(4-Acetyl-[1,4]diazepan-1-yl)-pentanoic acid [5-(4-methoxy-phenyl)-2H-pyrazol-3-yl]-amide], in data set [1] (at RH 50%), the water uptake result is reported as “(7% at RH”. Further, in data set [1], the “hygroscopicity (Crystal Form Table)” value is “Hygroscopic”.

Broadly, the melting point is the temperature, or range, at which the solid turns liquid. A word on the EC50: it is the concentration giving half of the maximal effect. A high value points to lower potency in that assay.
